Here are results for 21 compounds from ChEMBL document CHEMBL1126514, “Thiopene systems. 15. Synthesis and antihypertensive activity of 7- (subsituted benzamido)-6-hydroxythieno[3,2,-b]pyrans as nwe potassium channel activitors” (1993).

Common to all, as to type: functional
Assay [1] relates to Rattus norvegicus. The experiment in a line: Maximal change in mean arterial blood pressure comparing MAP immediately prior to and up to 240 min after oral dose in rat.
The subject of assay [2] is Rattus norvegicus. The experiment in a line: Maximal change in mean arterial blood pressure comparing MAP immediately prior to and up to 240 min after oral dose of 1 mgkg of compound in rat.
Assay [3] concerns Rattus norvegicus. The experiment in a line: Dose to produce 30% reduction in mean arterial pressure in rat when administered perorally. Conditions: Artery, po.
Assay [4] deals with Rattus norvegicus. The experiment in a line: Maximal change in mean arterial blood pressure comparing MAP immediately prior to and up to 240 min after oral dose of 0.1 mgkg of compound in rat.
The subject of assay [5] is Rattus norvegicus. The experiment in a line: Maximal change in mean arterial blood pressure comparing MAP immediately prior to and up to 240 min after oral dose of 0.3 mgkg of compound in rat.

`CC(=O)c1cc2c(s1)[C@@H](NC(=O)c1cccc([N+](=O)[O-])c1)[C@H](O)C(C)(C)O2`: the “Change MAP” value is given as 63% in assay [1] and 17% in assay [2]. As for `CC1(C)Oc2cc([N+](=O)[O-])sc2[C@@H](NC(=O)c2ccccc2)[C@@H]1O`, the “Change MAP” value in assay [1] is reported as 38%. The same measure, in the same setting: in the case of `CC(=O)c1cc2c(s1)[C@@H](NC(=O)c1ccco1)[C@H](O)C(C)(C)O2` it was 38%. Still for that read-out and setting: in the case of `COc1ccc(C(=O)N[C@@H]2c3sc(C(C)=O)cc3OC(C)(C)[C@H]2O)cc1` it was 20%. With `CC(=O)c1cc2c(s1)[C@@H](NC(=O)c1ccc([N+](=O)[O-])cc1)[C@H](O)C(C)(C)O2`, the “Change MAP” value in assay [1] is 63%. For the same compound, the ED30 in assay [3] is 0.89 mg/kg. As to `CC1(C)Oc2ccsc2[C@@H](NC(=O)c2ccccc2)[C@@H]1O`, the “Change MAP” value in assay [1] is given as 35%. In the case of `CC(=O)c1cc2c(s1)[C@@H](NC(=O)c1ccc(F)cc1)[C@H](O)C(C)(C)O2`, in assay [1], the “Change MAP” value was found to be 75%. In addition, the ED30 in assay [3] was 0.059 mg/kg. Take `CC(=O)c1cc2c(s1)[C@@H](NC(=O)c1ccccc1F)[C@H](O)C(C)(C)O2`: the “Change MAP” value is on record as 59% in assay [1] and -17% in assay [2].

Compound `CC1(C)Oc2ccc(OC(F)(F)F)cc2[C@@H](N2Cc3ccccc3C2=O)[C@@H]1O` [CELIKALIM] registered an ED30 in assay [3] of 0.5 mg/kg.

In the case of `CC(=O)c1cc2c(s1)[C@@H](NC(=O)c1ccc(C(F)(F)F)cc1)[C@H](O)C(C)(C)O2`, the “Change MAP” value in assay [1] is given as 26%. With `CC(=O)c1cc2c(s1)[C@@H](NC(=O)c1ccccc1)[C@H](O)C(C)(C)O2`, the “Change MAP” value in assay [1] was 55%. This compound also had an ED30 in assay [3] of 0.2 mg/kg. Turning to `CC(=O)c1cc2c(s1)[C@@H](NC(=O)c1ccc(F)cc1F)[C@H](O)C(C)(C)O2`, the “Change MAP” value is 59% in assay [1] and 16% in assay [4].

Regarding `CC1(C)Oc2ccc(C#N)cc2[C@@H](N2CCCC2=O)[C@@H]1O` [CROMAKALIM], the “Change MAP” value in assay [1] came out at 47%. The ED30 in assay [3] was determined as 0.19 mg/kg. Taken in the same sequence, the figures for `CC(=O)c1cc2c(s1)[C@@H](NC(=O)c1ccc(F)c(F)c1)[C@H](O)C(C)(C)O2` were 62% and 0.099 mg/kg.

Take `CC(=O)c1cc2c(s1)[C@@H](NC(=O)c1ccc(C)cc1)[C@H](O)C(C)(C)O2`: in assay [1], the “Change MAP” value is listed as 10%.

The compound `CC1(C)Oc2cc([N+](=O)[O-])sc2[C@@H](N2Cc3ccccc3C2=O)[C@@H]1O` gave an ED30 in assay [3] of 0.22 mg/kg. With `CC1(C)Oc2cc([N+](=O)[O-])sc2[C@@H](N2CCCCC2=O)[C@@H]1O`, in assay [4], the “Change MAP” value was 63%. Also, in assay [3], the ED30 is 0.015 mg/kg.

`CC(=O)c1cc2c(s1)[C@@H](NC(=O)c1ccc(Cl)cc1)[C@H](O)C(C)(C)O2`: the “Change MAP” value in assay [1] is 60%. The compound further returned an ED30 in assay [3] of 0.11 mg/kg.

With `CC1(C)Oc2cc([N+](=O)[O-])sc2[C@@H](NC(=O)c2ccc([N+](=O)[O-])cc2)[C@@H]1O`, the “Change MAP” value in assay [1] is reported as 29%.

As for `CC(=O)c1cc2c(s1)[C@@H](NC(=O)c1cccnc1)[C@H](O)C(C)(C)O2`, in assay [1], the “Change MAP” value is 29%. Regarding `CC(=O)c1cc2c(s1)[C@@H](NC(=O)c1cccc(Cl)c1)[C@H](O)C(C)(C)O2`, the “Change MAP” value in assay [1] is 59%; in assay [5], 17%.
